Reference: patent US8314150B2, “Kinase protein binding inhibitors” (priority 2008, dated 2012)

Test system: Panc-1 and Miapaca-2 cells
Experiment: Trypan blue staining, pancreatic cancer cells
Format: cell-based, human
Settings: increasing doses, 24 hours
Description: Cell Viability Assay—The Cells were treated with peptides for 24 hours at different peptide concentrations. The 3-(4,5-dimethylthiazol-2-yl)-5-(3-carboxymethoxyphenyl)-2-(4-sulfophenyl)-2H-tetrazolium compound from Promega Viability kit (Madison, Ill.) was added, and the cells were incubated at 37° C. for 1-2 hours. The optical density on 96-plate was analyzed with a microplate reader at 490 nm to determine cell viability. In addition, cells were stained with trypan blue after 24 hours of treatment with Y15 and the percent of cells that stained positive were determined with a hemacytometer. […] Then 2% SDS was added to the dried plated and OD at 590 nm was measured for detecting cell adhesion. […] Protein concentrations were determined using a Bio-Rad Kit. The boiled samples were loaded on Ready SDS-10% PAGE gels (Bio Rad, Inc) and used for Western blot analysis with the protein-specific antibody. […] Detachment Assay—Cells were plated with and without inhibitors for 24 hours, and detached and attached cells were counted in a hemocytometer. We calculated the percent of detachment by dividing the number of detached cells by the total number of cells. The percent of detached cells was calculated in three independent experiments. […] For each experiment 300 cells per treatment were counted. […]

Cl.Cl.Cl.Cl.Nc1cc(N)c(N)cc1N [Y15, 1,2,4,5-benzenetetraamine tetrahydrochloride]
cell viability (trypan blue): decreased cell viability indicative of necrosis
